# Measurements from patent publication US6759420B1, “Arylalkanoyl derivatives, processes for their preparation, their use and pharmaceutical compositions containing them” (Aventis Pharma Deutschland GmbH, priority 1999, dated 2004).
# Where a name gives a salt, the structure may show the parent alone.
# Molecular target: factor Xa (Homo sapiens, UniProt P00742)
# Test: Factor Xa assay (Test 1a), chromogenic
# Assay type: biochemical
# Parameters: purchased Enzyme Research Laboratories, Inc; South Bend, Ind
# Details: in vitro factor Xa assay Test 1a; human factor Xa 0.5 nM, substrate S-2765 140 μM, 25° C.; Ki from IC50 corrected for substrate competition
# Text: The ability of a compound of formula (I) to inhibit factor Xa, thrombin, plasmin, elastase, and trypsin may be assessed by determining the concentration of compound of formula (I) that inhibits enzyme activity by 50% (IC50). Purified enzymes are used in chromogenic assays. To determine the inhibition constant, the IC50 value is corrected for competition with substrate using the formula:
# Ki=IC50×(1/{1+((substrate concentration)/substrate Km)})
# where Km is the Michaelis-Menten constant. Y. -C. Chen and W. H. Prusoff, Biochem. Pharmacol. 22: […] (1973), which is incorporated herein by reference.
# TBS-PEG buffer (50 mM Tris-Cl, pH 7.8, 200 mM NaCl, 0.05% (w/v) PEG-8000, 0.02% (w/v) NaN3) is used for this assay. The IC50 is determined by combining in appropriate wells of a Costar half-area microtiter plate 25 μl human factor Xa (Enzyme Research Laboratories, Inc.; South Bend, Ind.) in TBS-PEG; 40 μl 10% (v/v) DMSO in TBS-PEG (uninhibited control) or various concentrations of the compound to be tested diluted in 10% (v/v) DMSO in TBS-PEG; and substrate S-2765 (N-benzyloxycarbonyl-D-Arg-Gly-L-Arg-p-nitroanilide; Kabi Pharmacia, Inc.; Franklin Ohio) in TBS-PEG.
# The assays are performed by pre-incubating the compound of formula (I) plus enzyme for 10 min, then the assay is initiated by adding substrate to obtain a final volume of 100 μl. The initial velocity of chromogenic substrate hydrolysis is measured by the change in absorbance at 405 nm using a Bio-tek Instruments kinetic plate reader (Ceres UV900HDi) at 25° C. during the linear portion of the time course (usually 1.5 min after addition of substrate). The concentration of inhibitor that causes a 50% decrease in the rate of substrate hydrolysis is predicted by linear regression after plotting the relative rates of hydrolysis (compared to the uninhibited control) versus the log of the compound of formula (I) concentration. The enzyme concentration is 0.5 nM and substrate concentration is 140 μM.
# factor Xa, sequence (P00742 235-488 limits assumed): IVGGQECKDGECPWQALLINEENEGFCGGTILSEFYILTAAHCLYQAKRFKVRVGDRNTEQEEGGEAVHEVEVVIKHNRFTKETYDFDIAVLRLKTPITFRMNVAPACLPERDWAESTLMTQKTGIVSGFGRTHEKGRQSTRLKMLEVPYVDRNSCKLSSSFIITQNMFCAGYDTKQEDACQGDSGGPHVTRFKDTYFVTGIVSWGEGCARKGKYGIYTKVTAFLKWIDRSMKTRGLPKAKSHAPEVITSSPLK
# factor Xa, sequence (P00742 41-179 limits assumed): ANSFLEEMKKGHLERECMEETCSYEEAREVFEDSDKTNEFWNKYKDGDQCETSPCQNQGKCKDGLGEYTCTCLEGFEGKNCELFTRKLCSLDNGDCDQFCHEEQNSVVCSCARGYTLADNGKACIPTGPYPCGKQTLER
row,Structure (SMILES),Ki
1,"CC(C)OC(=O)[C@H](CCCNC(=N)N)NC(=O)[C@@H](NC(=O)C(Cc1ccc(C(=N)N)cc1)C1CCCCC1)C1CCCCC1 (mixture of isomers) [Example 181, 2-(S)-{2-[3-(4-Carbamimidoyl-phenyl)-2-(R,S)-cyclohexyl-propionylamino]-2-(S)-cyclohexyl-acetylamino}-5-guanidino-pentanoic acid isopropyl ester hydrochloric acid salt]",13 nM
2,"N=C(N)c1ccc(CC(C(=O)N[C@H](C(=O)NCC2CCN(C(=N)N)CC2)C2CCCCC2)c2ccccc2Cl)cc1 (single isomer, unassigned; less polar) [Example 230]",1 nM
3,"N=C(N)c1ccc(CC(C(=O)NC(C(=O)NCC2CCN(C(=N)N)CC2)C2CCCCC2)c2cccc(F)c2)cc1 (single isomer, unassigned; less polar) [Example 161]",8 nM
4,"N=C(N)NCCC[C@H](NC(=O)[C@H](CCC(=O)O)NC(=O)C(Cc1ccc(C(=N)N)cc1)c1ccc2ccccc2c1)C(=O)N[C@@H](CC1CCCCC1)C(N)=O (mixture of isomers) [Example 82, 4-(S)-[3-(4-Carbamimidoyl-phenyl)-2-(R,S)-naphthalen-2-yl-propionylamino]-4-[1-(S)-(1-(S)-carbamoyl-2-cyclohexyl-ethylcarbamoyl)-4-guanidino-butylcarbamoyl]-butyric acid trifluoroacetic acid salt]",2840 nM
5,"N=C(N)NCCCC(NC(=O)C(NC(=O)C(Cc1ccc(C(=N)N)cc1)c1cccc(Cl)c1)C1CCCCC1)C(N)=O (single isomer, unassigned; more polar) [Example 125]",2570 nM
6,"N=C(N)NCCC[C@H](NC(=O)[C@H](Cc1ccc2ccccc2c1)NC(=O)C(Cc1ccc(C(=N)N)cc1)c1ccc2ccccc2c1)C(N)=O (mixture of isomers) [Example 39, 2-(S)-{2-(S)-[3-(4-Carbamimidoyl-phenyl)-2-(R,S)-naphthalen-2-yl-propionyl-amino]-3-naphthalen-2-yl-propionylamino}-5-guanidino-pentanoic acid amide trifluoroacetic acid salt]",2890 nM
7,"CC(Cc1ccc(C(=N)N)cc1)(C(=O)N[C@H](C(=O)N[C@@H](CCCNC(=N)N)C(N)=O)C1CCCCC1)c1ccccc1 (mixture of isomers) [Example 96, 2-(S)-{2-(S)-[3-(4-Carbamimidoyl-phenyl)-2-(R,S)-methyl-2-phenyl-propionylamino]-2-cyclohexyl-acetylamino}-5-guanidino-pentanoic acid amide trifluoroacetic acid salt]",8.4 nM
8,"CC(=N)N1CCC(CNC(=O)[C@@H](NC(=O)C(Cc2ccc(C(=N)N)cc2)c2cccc(C(F)(F)F)c2)C2CCCCC2)CC1 (single isomer, unassigned; less polar) [Example 258]",8 nM

# Other lines, results leading:
row,Ki,Structure (SMILES)
1,2.8 nM,"CCCC[C@H](NC(=O)C(Cc1ccc(C(=N)N)cc1)c1cccnc1)C(=O)N[C@@H](CCCNC(=N)N)C(N)=O (mixture of isomers) [Example 23, 2-(S)-[3-(4-Carbamimidoyl-phenyl)-2-(R,S)-pyridin-3-yl-propionylamino]-hexanoic acid (1-(S)-carbamoyl-4-guanidino-butyl)-amide trifluoroacetic acid salt]"
2,6 nM,"N=C(N)c1ccc(CC(C(=O)NC(C(=O)NCC2CCN(C(=N)N)CC2)C2CCCCC2)C2CCCCC2)cc1 (single isomer, unassigned; less polar) [Example 113]"
3,1 nM,"N=C(N)NCCCC(NC(=O)C(NC(=O)C(Cc1ccc(C(=N)N)cc1)c1cccc(Cl)c1)C1CCCCC1)C(N)=O (single isomer, unassigned; less polar) [Example 124]"
4,2.3 nM,"N=C(N)NCCC[C@H](NC(=O)[C@@H](NC(=O)C(Cc1ccc(C(=N)N)cc1)c1cccnc1)c1ccccc1)C(N)=O (mixture of isomers) [Example 66, 2-(S)-{2-(S)-[3-(4-Carbamimidoyl-phenyl)-2-(R,S)-pyridin-3-yl-propionyl-amino]-2-phenyl-acetylamino}-5-guanidino-pentanoic acid amide trifluoroacetic acid salt]"
